Experiments:
MMP-1 = test: Anti-wrinkle index test: MMP-1 content in supernatant of UVA-stimulated fibroblasts (ELISA); format: cell-based, human; details: UVA 7 J/cm^2, samples 24 h, black tea fermentation liquor 6%, VC 80 µg/ml, GSH 20 m/ml
Description: (§1) Test of anti-wrinkle index of fibroblasts: fibroblasts were set with a blank control group, a model group, a positive control group and a sample group. The number of cells per well was controlled to be 5×10^5. After incubation at 37° C. for 24 h in a 5% CO2 incubator, the medium was removed and a small amount of PBS (pH of 7.4) was added to just cover the cells. The cells were stimulated with UVA at the UV radiation dose of 7 J/cm^2, and the blank control group was not radiated. PBS was discarded, samples with different concentrations were added, with the addition concentration of the black tea fermentation liquor being 6%, VC being 80 µg/ml, and GSH being 20 m/ml; and the cells were stimulated for 24 h. The cell culture supernatants were centrifuged for 15 min at 4° C. and 1000 g, and the supernatants were tested for MMP-1 content using human matrix metalloproteinase-1 (MMP-1) ELISA Kit. The cell suspension was diluted with PBS (pH of 7.2-7.4) to obtain a cell concentration of 1×10^6 cells/mL, and the cells were ruptured after repeated freeze-thaw treatment. The cells were centrifuged at 1000 g for 20 min to obtain the supernatant, which was used to test the CoLI content using a type I collagen (CoLI) test box, and test the HA content using human hyaluronic acid (HA) ELISA Kit. All operations were conducted in accordance with the kit instructions.

type I collagen (CoLI) = test: Anti-wrinkle index test: CoL I content in UVA-stimulated fibroblasts (type I collagen test box); format: cell-based; details: UVA 7 J/cm^2, samples 24 h, black tea fermentation liquor 6%, VC 80 µg/ml, GSH 20 m/ml
Description: as §1

hyaluronic acid (HA) = test: Anti-wrinkle index test: HA content in UVA-stimulated fibroblasts (ELISA); format: cell-based, human; details: UVA 7 J/cm^2, samples 24 h, black tea fermentation liquor 6%, VC 80 µg/ml, GSH 20 m/ml
Description: as §1

[1] = tested on: theanine synthesis system; test: High throughput screening of alanine decarboxylase CsAlaDC mutant enzyme in theanine synthesis system; format: biochemical, Escherichia coli
Description: First, a BL21-GMAS-CsAlaDC recombinant single colony was selected and loaded onto a 96-well plate, added into a 800 μL LB medium, and cultured at 37° C. and 900 r/min for 6 h; thereafter, IPTG (isopropyl-3-D-thiogalactoside) at a final concentration of 0.1 mM was added, and cultured at 24° C. for 16 h. Into the 96-well plate, 0.1 mL glycerol, 200 μL potassium glutamate of 50 mM, 200 μL alanine of 50 mM, 50 μL ATP of 10 mM, 80 μL MgCl2 of 5 mM, 85 μL DTT of 10 mM, and 85 μL Tris-HCl of 100 mM (pH 7.5) were sequentially added, to form a theanine synthesis system. The synthesis reaction was conducted for 24 h in a 30° C. water bath and repeated three times. […]
Color developing solution: 1.0 g/L soluble starch was weighed, mixed with distilled water, and boiling distilled water was added. […] After cooling, insoluble substances were filtered through a quantitative filter paper, and 1.0 g sodium hydroxide was added. […]
10 mL EP tubes were taken, 1 mL theanine sample and 4 mL sodium bicarbonate solution were added to one tube, and 5 mL sodium bicarbonate solution was added to the other tube, mixed and then stood for 5 min. […] Immediately after being mixed well, their absorbance values were respectively measured at the wavelength of 570 nm on the spectrophotometer by using distilled water as reference and with a cuvette. A high absorbance at 570 nm indicates a high theanine content. […]

Row | Molecule | MMP-1 content (MMP-1) | CoL I content (type I collagen (CoLI)) | HA content (hyaluronic acid (HA)) | content of theanine catalyzed by the enzyme ([1]; BL21-GMAS-CsAlaDC recombinant, glutamate + alanine + ATP, no ethylamine, 30° C., 24 h) | theanine content higher than that of original enzyme CsAlaDC ([1]; compared with original enzyme CsAlaDC)
1 | N[C@@H](CCC(=O)N[C@@H](CS)C(=O)NCC(=O)O)C(=O)O [GSH] | 21.17 | 6.89 | 5.45 | – | –
2 | O=C1O[C@H]([C@@H](O)CO)C(O)=C1O [VC] | 20.42 | 2.45 | 4.38 | – | –
3 | CsAlaDC-I177Y (protein) MEGTVSVLSNVSKVELLSKCFDLITIPVEPLPPVVASNGVAGGETKKMKEKDIVLGKNVHTTSLTITEPDVDDDSTSDMEAFMAGVLVRYRKTLIEKTKYHLGYPFNLDLDYGPLAELQHFAINNLGDPFIESNYGVHSRQFEVGVLDWFARLWEIEQKEYWGYITNGGTEGNLHGYLVGREVFPDGIFYTSRESHYSIFKAARMYRMECVKVGTLINGEIDCADFKAKLLSNKDKPAIINLNIGTTVKGAVDDIDLVIQTLEECGFSHDRFYIHCDGALFGFMMPFLNRGPKITFKKPIGSVSVSGHKFMGCPTPCGVQITRLEHINALSRNVEYLASRDATITGSRNGHSPIILWYALNRKGFKGFQKEVQKCLRNAHYLKDRLREAGISAMLNELSSTVVFERPLDEEFVRRWQLACEGNMAHVIVMPNVTIEKLDEFLNELVQKRANWYNDGKAGPPCLAPDIGSENCDCDLHK | – | – | – | 93.6 µM | 85%
